According to publication PMC5977019, “NMR, Novel Pharmacological and In Silico Docking Studies of Oxyacanthine and Tetrandrine: Bisbenzylisoquinoline Alkaloids Isolated from Berberis glaucocarpa Roots” (Journal of Analytical Methods in Chemistry, 2018):

Tests used:
urease (jack bean) [1] = target: T1, urease (jack bean) (Canavalia ensiformis, UniProt P07374); test: indophenol urease assay (ammonia production, […] nm); format: biochemical
urease (jack bean) [2] = target: T1, urease (jack bean); test: indophenol urease assay (ammonia production, […] nm), standard inhibitor; format: biochemical; details: read-out: IC50 ± SEM (μg/mL) (converted)

T1 sequence (P07374 whole entry, looked up): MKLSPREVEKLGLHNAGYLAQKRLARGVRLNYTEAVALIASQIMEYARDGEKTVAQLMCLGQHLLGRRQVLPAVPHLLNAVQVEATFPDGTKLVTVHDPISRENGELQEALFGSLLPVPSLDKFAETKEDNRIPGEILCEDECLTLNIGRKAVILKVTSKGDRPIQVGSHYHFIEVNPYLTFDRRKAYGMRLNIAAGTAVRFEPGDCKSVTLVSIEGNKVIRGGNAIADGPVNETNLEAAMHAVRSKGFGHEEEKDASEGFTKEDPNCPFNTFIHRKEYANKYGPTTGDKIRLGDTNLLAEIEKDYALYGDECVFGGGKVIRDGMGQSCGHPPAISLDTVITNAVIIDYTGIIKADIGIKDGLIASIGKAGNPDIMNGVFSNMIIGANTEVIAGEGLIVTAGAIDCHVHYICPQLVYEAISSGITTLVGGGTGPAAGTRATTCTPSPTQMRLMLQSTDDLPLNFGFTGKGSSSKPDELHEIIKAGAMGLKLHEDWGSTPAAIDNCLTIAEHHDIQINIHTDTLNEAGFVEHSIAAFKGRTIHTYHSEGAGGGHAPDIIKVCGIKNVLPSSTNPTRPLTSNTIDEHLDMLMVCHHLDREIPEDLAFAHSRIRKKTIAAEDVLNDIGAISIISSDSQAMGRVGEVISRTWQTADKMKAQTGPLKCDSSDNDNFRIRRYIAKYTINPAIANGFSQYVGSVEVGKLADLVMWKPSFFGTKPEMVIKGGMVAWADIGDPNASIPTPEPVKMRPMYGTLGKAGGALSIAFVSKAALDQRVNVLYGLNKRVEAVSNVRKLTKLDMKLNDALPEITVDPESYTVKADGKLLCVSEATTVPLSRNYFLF

COc1cc2c3cc1Oc1c(OC)c(OC)cc4c1[C@H](Cc1ccc(cc1)Oc1cc(ccc1O)C[C@H]3N(C)CC2)N(C)CC4 [compound 1, oxyacanthine]
IC50 (urease (jack bean) [1]): 10.4 µM

NC(N)=S [thiourea]
IC50 (urease (jack bean) [2]): 215 µM

COc1ccc2cc1Oc1ccc(cc1)C[C@H]1c3cc(c(OC)cc3CCN1C)Oc1c(OC)c(OC)cc3c1[C@H](C2)N(C)CC3 [compound 2, tetrandrine]
IC50 (urease (jack bean) [1]; read-out: IC50 ± SEM (μg/mL) (converted)): 8.85 µM
